Here are results for 55 compounds from patent US8017611B2, “Pyridine and pyrazine derivatives -083” (AstraZeneca AB, priority 2007, dated 2011).

The test has as its target T1, recombinant Axl tyrosine kinase (Homo sapiens, UniProt P30530).
T1 construct: encompassing amino acids 473 to 894 of Axl; GST (N); made in house; host or cells: SF126 insect cells
T1 sequence (P30530 473-894): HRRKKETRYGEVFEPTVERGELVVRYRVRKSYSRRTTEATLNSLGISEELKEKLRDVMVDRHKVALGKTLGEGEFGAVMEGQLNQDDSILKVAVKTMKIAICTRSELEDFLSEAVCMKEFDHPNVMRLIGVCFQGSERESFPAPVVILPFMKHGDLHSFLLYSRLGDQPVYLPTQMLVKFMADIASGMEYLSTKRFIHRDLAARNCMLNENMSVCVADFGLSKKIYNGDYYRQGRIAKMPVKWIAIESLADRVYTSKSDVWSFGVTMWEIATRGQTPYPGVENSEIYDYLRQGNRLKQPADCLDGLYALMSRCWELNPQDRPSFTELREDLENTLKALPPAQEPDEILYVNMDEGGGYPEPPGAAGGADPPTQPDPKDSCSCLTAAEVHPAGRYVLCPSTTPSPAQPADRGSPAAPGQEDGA
Description: In vitro Axl kinase assay (AlphaScreen), Test (a). Type of test: biochemical. As to conditions: test compound at 1 μM; first value quoted. A general note: Bead proximity is the source of the signal in Alpha formats.
For `CN(C)CCCCNC(=O)c1ccc(-c2cnc(N)c(-c3nc4cccnc4o3)c2)cc1` [Example 45A.2], the “% Axl tyrosine kinase inhibition at 1 μM concentration” value (shortened to “% Axl tyrosine kinase inhibition”) is on record as 96.6%. Take `CN1CCC(N(C)C(=O)c2ccc(-c3cnc(N)c(-c4nc5cccnc5o4)c3)cc2)C1` (stereo not shown) [Example 45A.3]: the “% Axl tyrosine kinase inhibition” value amounted to 98.0%. Regarding `CN1CCCC1CCNC(=O)c1ccc(-c2cnc(N)c(-c3nc4cccnc4o3)c2)cc1` (stereo not shown) [Example 45A.5], the “% Axl tyrosine kinase inhibition” value is listed as 98.8%. With `Nc1ncc(-c2ccc(C(=O)NCCCN3CCCC3)cc2)cc1-c1nc2cccnc2o1` [Example 45A.6], the “% Axl tyrosine kinase inhibition” value was found to be 97.4%. For `Nc1ncc(-c2ccc(C(=O)NCCn3ccnc3)cc2)cc1-c1nc2cccnc2o1` [Example 45A.7], the “% Axl tyrosine kinase inhibition” value came out at 97.7%. Under `Nc1ncc(-c2ccc(C(=O)N3CCCCC3CN3CCCCC3)cc2)cc1-c1nc2cccnc2o1` (stereo not shown) [Example 45A.8] stands 99.8%. To `Nc1ncc(-c2ccc(C(=O)NCCCN3CCCCC3)cc2)cc1-c1nc2cccnc2o1` [Example 45A.9] belongs 99.0%. Consider `COCCN1CCC(NC(=O)c2ccc(-c3cnc(N)c(-c4nc5cccnc5o4)c3)cc2)CC1` [Example 45A.10], for which the “% Axl tyrosine kinase inhibition” value amounted to 97.5%.

`Nc1ncc(-c2ccc(C(=O)NCCN3CCS(=O)(=O)CC3)cc2)cc1-c1nc2cccnc2o1` [Example 45A.12]: the “% Axl tyrosine kinase inhibition” value is 96.3%. `CN(C)CCC1CCN(C(=O)c2ccc(-c3cnc(N)c(-c4nc5cccnc5o4)c3)cc2)CC1` [Example 45A.14]: the “% Axl tyrosine kinase inhibition” value came to 89.9%. Under `CN1CCCCC1C1CCCN1C(=O)c1ccc(-c2cnc(N)c(-c3nc4cccnc4o3)c2)cc1` (stereo not shown) [Example 45A.15] stands 99.7%. For `Nc1ncc(-c2ccc(C(=O)N3CCCC3CN3CCOCC3)cc2)cc1-c1nc2cccnc2o1` (stereo not shown) [Example 45A.16], the “% Axl tyrosine kinase inhibition” value stood at 94.2%. Consider `Nc1ncc(-c2ccc(C(=O)N3CCCC3CN3CCCCCC3)cc2)cc1-c1nc2cccnc2o1` (stereo not shown) [Example 45A.17], for which the “% Axl tyrosine kinase inhibition” value worked out at 99.6%. `CC1CCCCN1CC1CCCN1C(=O)c1ccc(-c2cnc(N)c(-c3nc4cccnc4o3)c2)cc1` (stereo not shown) [Example 45A.18]: the “% Axl tyrosine kinase inhibition” value came to 99.7%. For the compound `CN1CCCC(NC(=O)c2ccc(-c3cnc(N)c(-c4nc5cccnc5o4)c3)cc2)C1` (stereo not shown) [Example 45A.19], the “% Axl tyrosine kinase inhibition” value is on record as 98.7%. Consider `CN(C)C1CCCN(C(=O)c2ccc(-c3cnc(N)c(-c4nc5cccnc5o4)c3)cc2)C1` (stereo not shown) [Example 45A.20], for which the “% Axl tyrosine kinase inhibition” value amounted to 98.9%.

Turning to `Nc1ncc(-c2ccc(C(=O)N3CCCCC3CN3CCOCC3)cc2)cc1-c1nc2cccnc2o1` (stereo not shown) [Example 45A.21], the “% Axl tyrosine kinase inhibition” value came to 96.4%. `Nc1ncc(-c2ccc(C(=O)N3CC[C@H](N4CCCC4)C3)cc2)cc1-c1nc2cccnc2o1` [Example 45A.22]: the “% Axl tyrosine kinase inhibition” value is listed as 97.1%. Under `Nc1ncc(-c2ccc(C(=O)N3CCCCC3CN3CCCC3)cc2)cc1-c1nc2cccnc2o1` (stereo not shown) [Example 45A.23] stands 99.8%.

On to `CN(C)C1CCC(NC(=O)c2ccc(-c3cnc(N)c(-c4nc5cccnc5o4)c3)cc2)CC1` (stereo not shown) [Example 45A.24], for which the “% Axl tyrosine kinase inhibition” value amounted to 95.8%. For the compound `CN1CCC(CNC(=O)c2ccc(-c3cnc(N)c(-c4nc5cccnc5o4)c3)cc2)CC1` [Example 45A.25], the “% Axl tyrosine kinase inhibition” value is on record as 97.8%.

Take `CN1CCCCC1CNC(=O)c1ccc(-c2cnc(N)c(-c3nc4cccnc4o3)c2)cc1` (stereo not shown) [Example 45A.26]: the “% Axl tyrosine kinase inhibition” value is 99.6%.

For `CN1CCC(CNC(=O)c2ccc(-c3cnc(N)c(-c4nc5cccnc5o4)c3)cc2)C1` (stereo not shown) [Example 45A.27], the “% Axl tyrosine kinase inhibition” value is 97.9%. For the compound `CN1CCOC(CNC(=O)c2ccc(-c3cnc(N)c(-c4nc5cccnc5o4)c3)cc2)C1` (stereo not shown) [Example 45A.28], the “% Axl tyrosine kinase inhibition” value was found to be 97.5%.

With `Nc1ncc(-c2ccc(C(=O)N3CCCCC3CCN3CCCC3)cc2)cc1-c1nc2cccnc2o1` (stereo not shown) [Example 45A.29], the “% Axl tyrosine kinase inhibition” value worked out at 98.8%. Under `CN1CC(NC(=O)c2ccc(-c3cnc(N)c(-c4nc5cccnc5o4)c3)cc2)C1` [Example 45A.30] stands 97.4%.

`CN1CCC(N(C)C(=O)c2ccc(-c3cnc(N)c(-c4nc5cccnc5o4)c3)cc2)CC1` [Example 45A.31]: the “% Axl tyrosine kinase inhibition” value amounted to 95.9%. For `Nc1ncc(-c2ccc(C(=O)NCCN3CCCCCC3)cc2)cc1-c1nc2cccnc2o1` [Example 45A.32], the “% Axl tyrosine kinase inhibition” value is listed as 99.6%. Turning to `CCN(CC)C1CCN(C(=O)c2ccc(-c3cnc(N)c(-c4nc5cccnc5o4)c3)cc2)C1` (stereo not shown) [Example 45A.33], the “% Axl tyrosine kinase inhibition” value was determined as 97.7%.

For the compound `Nc1ncc(-c2ccc(C(=O)N[C@H]3CN4CCC3CC4)cc2)cc1-c1nc2cccnc2o1` [Example 45A.35], the “% Axl tyrosine kinase inhibition” value was found to be 98.4%. For the compound `Nc1ncc(-c2ccc(C(=O)NCCN3CCC(F)(F)C3)cc2)cc1-c1nc2cccnc2o1` [Example 45A.37], the “% Axl tyrosine kinase inhibition” value was 92.2%. To `Nc1ncc(-c2ccc(C(=O)NCCN3CC[C@H](F)C3)cc2)cc1-c1nc2cccnc2o1` [Example 45A.38] belongs 98.4%; to `Nc1ncc(-c2ccc(C(=O)NCCCN3CC[C@@H](F)C3)cc2)cc1-c1nc2cccnc2o1` [Example 45A.39], 98.4%. `Nc1ncc(-c2ccc(C(=O)NCCCN3CC[C@H](F)C3)cc2)cc1-c1nc2cccnc2o1` [Example 45A.40]: the “% Axl tyrosine kinase inhibition” value is reported as 98.3%. To `CN(C)C1(CNC(=O)c2ccc(-c3cnc(N)c(-c4nc5cccnc5o4)c3)cc2)CCCCC1` [Example 45A.41] belongs 99.0%; to `CC(C)N1CCC(CN(C)C(=O)c2ccc(-c3cnc(N)c(-c4nc5cccnc5o4)c3)cc2)C1` (stereo not shown) [Example 45A.42], 99.3%; to `CC(C)N1CCC[C@H]1CNC(=O)c1ccc(-c2cnc(N)c(-c3nc4cccnc4o3)c2)cc1` [Example 45A.43], 99.9%. For `CN1CCC(NC(=O)c2ccc(-c3cnc(N)c(-c4nc5cccnc5o4)c3)cc2)C2CCCCC21` (stereo not shown) [Example 45A.44], the “% Axl tyrosine kinase inhibition” value came out at 99.3%. For the compound `C[C@@H]1CN(CCNC(=O)c2ccc(-c3cnc(N)c(-c4nc5cccnc5o4)c3)cc2)C[C@H](C)O1` [Example 45A.45], the “% Axl tyrosine kinase inhibition” value was 93.8%. To `CC1CCN(CCCNC(=O)c2ccc(-c3cnc(N)c(-c4nc5cccnc5o4)c3)cc2)CC1` [Example 45A.46] belongs 99.1%. Under `CCN1CCC(CNC(=O)c2ccc(-c3cnc(N)c(-c4nc5cccnc5o4)c3)cc2)CC1` [Example 45A.47] stands 96.1%. Under `CN(C)CCN(C)C(=O)c1ccc(-c2cnc(N)c(-c3nc4cccnc4o3)c2)cc1` [Example 45A.48] stands 98.3%; under `CN1CCN(C(=O)c2ccc(-c3cnc(N)c(-c4nc5cccnc5o4)c3)cc2)CC1` [Example 45A.49], 96.1%; under `CN(C)CCN1CCN(C(=O)c2ccc(-c3cnc(N)c(-c4nc5cccnc5o4)c3)cc2)CC1` [Example 45A.50], 93.7%. On to `Nc1ncc(-c2ccc(C(=O)NCCN3CCOCC3)cc2)cc1-c1nc2cccnc2o1` [Example 45A.51], for which the “% Axl tyrosine kinase inhibition” value came out at 98.5%. As to `Nc1ncc(-c2ccc(C(=O)N3CCC(N4CCCCC4)CC3)cc2)cc1-c1nc2cccnc2o1` [Example 45A.52], the “% Axl tyrosine kinase inhibition” value is recorded as 94.3%. In the case of `Nc1ncc(-c2ccc(C(=O)NCCCn3ccnc3)cc2)cc1-c1nc2cccnc2o1` [Example 45A.53], the “% Axl tyrosine kinase inhibition” value is 98.8%. As to `CN(C)CCCN(C)C(=O)c1ccc(-c2cnc(N)c(-c3nc4cccnc4o3)c2)cc1` [Example 45A.54], the “% Axl tyrosine kinase inhibition” value is on record as 97.8%. Under `Nc1ncc(-c2ccc(C(=O)NCCN3CCCC3)cc2)cc1-c1nc2cccnc2o1` [Example 45A.55] stands 98.9%.

As to `Nc1ncc(-c2ccc(C(=O)NCCN3CCCCC3)cc2)cc1-c1nc2cccnc2o1` [Example 45A.56], the “% Axl tyrosine kinase inhibition” value came to 98.9%. To `Nc1ncc(-c2ccc(C(=O)NCCCN3CCOCC3)cc2)cc1-c1nc2cccnc2o1` [Example 45A.57] belongs 96.9%; to `CN1CCN(CCCNC(=O)c2ccc(-c3cnc(N)c(-c4nc5cccnc5o4)c3)cc2)CC1` [Example 45A.58], 97.0%. To `COCCN1CCN(C(=O)c2ccc(-c3cnc(N)c(-c4nc5cccnc5o4)c3)cc2)CC1` [Example 45A.59] belongs 88.8%. Consider `Nc1ncc(-c2ccc(C(=O)N3CCN(Cc4ccccn4)CC3)cc2)cc1-c1nc2cccnc2o1` [Example 45A.60], for which the “% Axl tyrosine kinase inhibition” value was 98.1%. As to `Nc1ncc(-c2ccc(C(=O)N3CCN(Cc4cccnc4)CC3)cc2)cc1-c1nc2cccnc2o1` [Example 45A.61], the “% Axl tyrosine kinase inhibition” value is recorded as 95.1%.
